Three molecules from ChEMBL document CHEMBL3875185, “Structure-anticonvulsant activity studies in the group of (E)-N-cinnamoyl aminoalkanols derivatives monosubstituted in phenyl ring with 4-Cl, 4-CH3 or 2-CH3” (Bioorg Med Chem, 2017) can be followed below.

The species named for data set [1] is Rattus norvegicus. Put plainly: Displacement of [3H]GABA from rat cerebral cortex GABA receptor at 100 uM.
For data set [2], the target named is T1, Adenosine receptor A1 (Homo sapiens) (UniProt P30542).
T1 sequence (whole entry): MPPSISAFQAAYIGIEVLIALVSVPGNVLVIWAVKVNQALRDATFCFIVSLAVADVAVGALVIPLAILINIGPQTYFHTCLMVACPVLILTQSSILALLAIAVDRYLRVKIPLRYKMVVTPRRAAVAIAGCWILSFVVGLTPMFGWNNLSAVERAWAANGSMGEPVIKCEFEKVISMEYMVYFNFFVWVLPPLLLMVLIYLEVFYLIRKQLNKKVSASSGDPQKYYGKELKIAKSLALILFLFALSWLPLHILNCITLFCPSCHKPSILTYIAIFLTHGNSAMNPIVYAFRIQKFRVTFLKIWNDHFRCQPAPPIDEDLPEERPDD
Kind of data set: Displacement of [3H]DPCPX from human recombinant adenosine receptor A1 expressed in CHO cells at 100 uM measured after 60 mins by scintillation counting method relative to control. Type of data set: cell-based.

Data set [3] relates to Mus musculus. Put plainly: Anticonvulsant activity in ip dosed maximal electroshock induced seizure mouse model assessed as suppression in hindlimb tonic extension. Type of data set: functional.
The target in data set [4] is 5-hydroxytryptamine receptor 6 (Homo sapiens) (UniProt P50406). Kind of data set: Displacement of [3H]LSD from human recombinant 5HT6 receptor expressed in CHO cells at 100 uM measured after 120 mins by scintillation counting method relative to control. In kind it is cell-based.
Data set [5] concerns the target Beta-1 adrenergic receptor (Homo sapiens) (UniProt P08588). Kind of data set: Displacement of [3H]CGP 12177 from human recombinant beta1 adrenergic receptor expressed in HEK293 cells at 100 uM measured after 60 mins by scintillation counting method relative to control. In kind it is cell-based.
Data set [6] addresses T2, Adenosine receptor A3 (Homo sapiens) (UniProt P0DMS8).
T2 sequence (whole entry): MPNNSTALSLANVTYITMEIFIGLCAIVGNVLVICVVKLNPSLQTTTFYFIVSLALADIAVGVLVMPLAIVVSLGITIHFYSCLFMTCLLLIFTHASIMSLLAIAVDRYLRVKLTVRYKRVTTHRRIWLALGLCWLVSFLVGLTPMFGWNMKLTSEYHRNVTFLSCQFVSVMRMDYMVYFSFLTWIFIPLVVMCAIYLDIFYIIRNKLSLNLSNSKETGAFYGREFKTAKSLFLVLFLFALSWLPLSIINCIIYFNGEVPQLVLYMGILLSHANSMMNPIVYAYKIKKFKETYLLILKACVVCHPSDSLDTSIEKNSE
Put plainly: Displacement of [125I]AB-MECA from human recombinant adenosine receptor A3 expressed in HEK293 cells at 100 uM measured after 120 mins by scintillation counting method relative to control. In kind it is cell-based.

Data set [7] concerns the target T3, Endothelin-1 receptor (Homo sapiens) (UniProt P25101).
T3 sequence (whole entry): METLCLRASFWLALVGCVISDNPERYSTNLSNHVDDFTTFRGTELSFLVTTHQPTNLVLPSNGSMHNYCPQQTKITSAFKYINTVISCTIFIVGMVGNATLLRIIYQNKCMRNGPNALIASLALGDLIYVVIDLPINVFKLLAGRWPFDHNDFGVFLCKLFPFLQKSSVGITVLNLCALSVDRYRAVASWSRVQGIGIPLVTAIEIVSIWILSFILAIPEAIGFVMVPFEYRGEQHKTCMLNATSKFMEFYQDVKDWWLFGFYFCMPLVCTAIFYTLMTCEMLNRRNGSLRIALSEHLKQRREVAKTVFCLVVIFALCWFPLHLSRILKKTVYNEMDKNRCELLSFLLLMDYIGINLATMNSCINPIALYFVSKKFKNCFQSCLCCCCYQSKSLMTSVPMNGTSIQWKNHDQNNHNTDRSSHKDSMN
Put plainly: Displacement of [125I]endothelin-1 from human recombinant ETA receptor expressed in CHO cells at 100 uM measured after 120 mins by scintillation counting method relative to control. In kind it is cell-based.

Data set [8] deals with T4, 5-hydroxytryptamine receptor 2C (Homo sapiens) (UniProt P28335).
T4 sequence (whole entry): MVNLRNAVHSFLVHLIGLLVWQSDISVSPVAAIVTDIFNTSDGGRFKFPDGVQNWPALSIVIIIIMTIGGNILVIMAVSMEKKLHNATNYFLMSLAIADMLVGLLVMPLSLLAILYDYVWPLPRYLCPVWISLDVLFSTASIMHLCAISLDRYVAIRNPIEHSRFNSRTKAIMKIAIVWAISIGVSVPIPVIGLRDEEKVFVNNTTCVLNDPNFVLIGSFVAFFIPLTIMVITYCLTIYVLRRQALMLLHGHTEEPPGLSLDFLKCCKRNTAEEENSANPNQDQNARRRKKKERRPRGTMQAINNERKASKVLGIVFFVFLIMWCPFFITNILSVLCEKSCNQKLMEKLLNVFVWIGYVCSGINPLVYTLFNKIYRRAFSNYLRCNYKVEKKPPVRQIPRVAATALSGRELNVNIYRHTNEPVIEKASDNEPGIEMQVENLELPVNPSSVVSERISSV
Put plainly: Displacement of [3H]mesulergine from human recombinant 5HT2C receptor expressed in HEK293 cells at 100 uM measured after 120 mins by scintillation counting method relative to control. Type of data set: cell-based.

Data set [9] deals with Mus musculus. Kind of data set: Neurotoxicity in mouse assessed as induction of motor impairment at 30 mg/kg, ip measured at 0.5 hrs post dose by rotarod method. Particulars: in vivo. In kind it is toxicity, organism-based.
In data set [10] the test system is Rattus norvegicus. Put plainly: Anticonvulsant activity in ip dosed pentylenetetrazole induced seizure Sprague-Dawley rat model assessed as no observable episode of clonic convulsion of at least 5 secs. Type of data set: functional.
The test system of data set [11] is Rattus norvegicus. Put plainly: Neurotoxicity in Sprague-Dawley rat assessed as behavioral change at 30 mg/kg, po measured at 2 hrs post dose. Particulars: in vivo. Type of data set: toxicity, organism-based.
Data set [12] concerns the target 5-hydroxytryptamine receptor 1B (Rattus norvegicus) (UniProt P28564). Kind of data set: Displacement of [125I]CYP from rat cerebral cortex 5HT1B receptor at 100 uM measured after 120 mins by scintillation counting method relative to control.
Data set [13] has as its target Melanocortin receptor 4 (Homo sapiens) (UniProt P32245). Kind of data set: Displacement of [125I]NDP-a-MSH from human recombinant MC4 receptor expressed in CHO cells at 100 uM measured after 120 mins by scintillation counting method relative to control. In kind it is cell-based.
Data set [14] relates to Mus musculus. Kind of data set: Neurotoxicity in ip dosed mouse assessed as induction of motor impairment by measuring time to peak effect by rotarod method. In kind it is toxicity, organism-based. Particulars: in vivo.

Chain of 5-hydroxytryptamine receptor 1B (Rattus norvegicus) (P28564 whole entry): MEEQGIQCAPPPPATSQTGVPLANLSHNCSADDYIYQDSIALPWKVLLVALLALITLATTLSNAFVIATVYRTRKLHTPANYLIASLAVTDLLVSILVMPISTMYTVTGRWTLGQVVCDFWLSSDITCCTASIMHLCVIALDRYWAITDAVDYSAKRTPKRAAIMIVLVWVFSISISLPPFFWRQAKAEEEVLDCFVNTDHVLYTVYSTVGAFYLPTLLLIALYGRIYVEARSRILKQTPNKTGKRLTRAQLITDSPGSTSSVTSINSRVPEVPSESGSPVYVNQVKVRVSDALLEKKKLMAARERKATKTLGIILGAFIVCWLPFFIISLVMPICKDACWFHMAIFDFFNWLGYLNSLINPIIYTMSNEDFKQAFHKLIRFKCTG
Chain of Beta-1 adrenergic receptor (Homo sapiens) (P08588 whole entry, looked up): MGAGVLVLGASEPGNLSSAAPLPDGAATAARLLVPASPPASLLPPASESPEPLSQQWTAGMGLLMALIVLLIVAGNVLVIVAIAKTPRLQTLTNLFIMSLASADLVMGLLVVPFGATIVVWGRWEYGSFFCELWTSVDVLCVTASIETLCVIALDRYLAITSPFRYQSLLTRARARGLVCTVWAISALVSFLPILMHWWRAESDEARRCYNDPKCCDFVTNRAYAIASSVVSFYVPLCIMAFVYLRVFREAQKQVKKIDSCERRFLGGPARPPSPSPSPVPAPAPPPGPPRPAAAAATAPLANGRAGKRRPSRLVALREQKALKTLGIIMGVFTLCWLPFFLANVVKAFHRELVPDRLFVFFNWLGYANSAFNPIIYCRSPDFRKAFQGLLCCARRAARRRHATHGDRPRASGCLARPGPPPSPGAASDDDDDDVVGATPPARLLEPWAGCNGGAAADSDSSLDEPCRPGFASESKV
Chain of 5-hydroxytryptamine receptor 6 (Homo sapiens) (P50406 whole entry): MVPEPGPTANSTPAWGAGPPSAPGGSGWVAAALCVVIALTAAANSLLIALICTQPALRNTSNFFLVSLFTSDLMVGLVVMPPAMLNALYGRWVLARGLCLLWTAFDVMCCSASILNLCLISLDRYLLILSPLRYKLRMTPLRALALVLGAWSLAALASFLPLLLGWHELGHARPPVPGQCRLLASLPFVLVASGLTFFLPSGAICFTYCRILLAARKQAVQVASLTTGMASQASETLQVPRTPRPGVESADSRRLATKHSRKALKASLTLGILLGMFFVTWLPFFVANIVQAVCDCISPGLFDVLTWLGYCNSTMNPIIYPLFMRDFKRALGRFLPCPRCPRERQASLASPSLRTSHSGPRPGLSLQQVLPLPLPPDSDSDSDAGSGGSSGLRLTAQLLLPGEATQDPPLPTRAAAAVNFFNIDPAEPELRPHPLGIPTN
Chain of Melanocortin receptor 4 (Homo sapiens) (P32245 whole entry): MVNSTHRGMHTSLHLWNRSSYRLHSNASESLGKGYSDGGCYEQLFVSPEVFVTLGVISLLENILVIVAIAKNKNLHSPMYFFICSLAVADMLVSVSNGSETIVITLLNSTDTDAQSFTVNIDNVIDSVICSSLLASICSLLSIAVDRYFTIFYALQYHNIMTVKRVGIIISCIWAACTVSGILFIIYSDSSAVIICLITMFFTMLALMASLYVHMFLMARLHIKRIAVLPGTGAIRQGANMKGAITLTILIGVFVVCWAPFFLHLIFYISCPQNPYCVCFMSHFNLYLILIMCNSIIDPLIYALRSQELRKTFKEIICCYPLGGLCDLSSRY

As for `Cc1ccccc1/C=C/C(=O)N[C@@H](C)CO`, the inhibition in the data set listed under Rattus norvegicus [1] is 13.2%; in data set [2], 1.3%; in data set [4] it was 7%; in [5] it was -2.8%; in data set [6], 17.1%; in data set [7] it was -1%. In addition, the results for the inhibition in data set [8], in data set [12] and in [13] were 81.2%, 32.4% and 7.9%, respectively. Further, the values for the ED50 in the data set on Mus musculus [3] and with Rattus norvegicus [10] were 42.6 mg/kg and 24.6 mg/kg, respectively. Moreover, the Activity result in the data set on Mus musculus [9] and in the data set with Rattus norvegicus [11] was “Non-Toxic” each time. Also, the Time in the data set with Mus musculus [14] was found to be 0.5 h.

As to `CCC(CO)NC(=O)/C=C/c1ccc(Cl)cc1` (configuration not stated), the inhibition in the data set filed under Rattus norvegicus [1] was 8.7%; in data set [2], -0.4%; in [4] it was 3.7%; in data set [5], -2.9%; in [6] it was 52.5%; in [7], 0.3%. The inhibition was 24.5% in data set [8], -1.5% in data set [12] and -3.1% in data set [13]. In addition, the median effective dose (ED50) with Mus musculus [3] came to 53.8 mg/kg; in the data set with Rattus norvegicus [10], 64.4 mg/kg. Further, the Activity result in the data set on Mus musculus [9] and with Rattus norvegicus [11] was “Non-Toxic” in each case. Besides, the Time in the data set with Mus musculus [14] turned out to be 0.25 h.

In the case of `CC(O)CNC(=O)/C=C/c1ccc(Cl)cc1` (configuration not stated), the inhibition in the data set listed under Rattus norvegicus [1] is -1.3%; in [2], 10%; in [4] it was 4.6%; in [5] it was 0.7%; in data set [6], 29.9%; in data set [7] it was 9.3%. Further, the values for the inhibition in data set [8], in data set [12] and in data set [13] were 23.4%, -3.2% and 0.9%, respectively. Besides, the ED50 in the data set with Mus musculus [3] worked out at 55.6 mg/kg; in the data set on Rattus norvegicus [10], 56 mg/kg. The Activity entry with Mus musculus [9] and in the data set on Rattus norvegicus [11] was “Non-Toxic” in each case. Moreover, the Time in the data set on Mus musculus [14] came to 0.25 h.
